The first experiment has as its system Pseudomonas aeruginosa. As to the kind of experiment: Antimicrobial activity against Pseudomonas aeruginosa ATCC 9027 at 0.1 ug/ml after 24 hrs by agar diffusion method. It counts as functional. Conditions: ATCC 9027, 24 h, read-out: DIZ.
Take `CCCCCCCCCCCCCCCCCC[N+]12CC[N+](CCCCC[N+]34CC[N+](CCCCCCCCCCCCCCCCCC)(CC3)CC4)(CC1)CC2`: the zone of inhibition at 0.1 µg/mL turned out to be 0 mm.
For the compound `CCCCCCCCCCCCCCC[N+]12CC[N+](CCCCC[N+]34CC[N+](CCCCCCCCCCCCCCC)(CC3)CC4)(CC1)CC2`, the zone of inhibition at 0.1 µg/mL turned out to be 0 mm.

The test system of another experiment is Bacillus subtilis. As to the kind of experiment: Antimicrobial activity against Bacillus subtilis ATCC 6633 at 0.1 ug/ml after 24 hrs by agar diffusion method. It counts as functional. The settings on record: ATCC 6633, 24 h, read-out: DIZ.
Regarding `CCCCCCCCCCCCCCCCCC[N+]12CC[N+](CCCCC[N+]34CC[N+](CCCCCCCCCCCCCCCCCC)(CC3)CC4)(CC1)CC2`, the zone of inhibition at 0.1 µg/mL stood at 0 mm.
For the compound `CCCCCCCCCCCCCCC[N+]12CC[N+](CCCCC[N+]34CC[N+](CCCCCCCCCCCCCCC)(CC3)CC4)(CC1)CC2`, the zone of inhibition at 0.1 µg/mL came to 0 mm.

The next experiment has as its system Escherichia coli. As to the kind of experiment: Antimicrobial activity against 10^7 CFU/ml Escherichia coli ATCC 25922 after 22 hrs by serial microdilution method. The settings on record: ATCC 25922, 22 h. It is filed as functional.
`CCCCCCCCC[N+]12CC[N+](CCCCC[N+]34CC[N+](CCCCCCCCC)(CC3)CC4)(CC1)CC2.[Br-].[Br-].[Br-].[Br-]` displayed an MBC of 25 µg/mL and an MIC of 6.3 µg/mL.

A further experiment deals with Candida albicans. The experiment can be described thus: Antimicrobial activity against 10^4 CFU/ml Candida albicans ATCC 32354 after 22 hrs by serial microdilution method. It is filed as functional. Conditions: ATCC 32354, 22 h.
For the compound `CCCCCCCCC[N+]12CC[N+](CCCCC[N+]34CC[N+](CCCCCCCCC)(CC3)CC4)(CC1)CC2.[Br-].[Br-].[Br-].[Br-]`, the MBC is below 1.6 µg/mL and the MIC was below 1.6 µg/mL.

The subject of another experiment is Escherichia coli. As to the kind of experiment: Antimicrobial activity against Escherichia coli ATCC 25922 at 1 ug/ml after 24 hrs by agar diffusion method. It counts as functional. Conditions: ATCC 25922, 24 h, read-out: DIZ.
As for `CCCCCCCCC[N+]12CC[N+](CCCCC[N+]34CC[N+](CCCCCCCCC)(CC3)CC4)(CC1)CC2.[Br-].[Br-].[Br-].[Br-]`, the zone of inhibition at 1 µg/mL was determined as 10 mm.

The subject of the next experiment is Bacillus subtilis. As to the kind of experiment: Antimicrobial activity against 10^4 CFU/ml Bacillus subtilis ATCC 6633 after 22 hrs by serial microdilution method. The settings on record: ATCC 6633, 22 h. It is filed as functional.
For the compound `CCCCCCCCC[N+]12CC[N+](CCCCC[N+]34CC[N+](CCCCCCCCC)(CC3)CC4)(CC1)CC2.[Br-].[Br-].[Br-].[Br-]`, the MBC came to 6.3 µg/mL and the MIC stood at 6.3 µg/mL.

The test system of the next experiment is Candida albicans. The experiment can be described thus: Antimicrobial activity against Candida albicans ATCC 32354 at 0.1 ug/ml after 24 hrs by agar diffusion method. It counts as functional. The settings on record: ATCC 32354, 24 h, read-out: DIZ.
On to `CCCCCCCCCCCCCCCCCC[N+]12CC[N+](CCCCC[N+]34CC[N+](CCCCCCCCCCCCCCCCCC)(CC3)CC4)(CC1)CC2`, for which the zone of inhibition at 0.1 µg/mL was 0 mm.
For `CCCCCCCCCCCCCCC[N+]12CC[N+](CCCCC[N+]34CC[N+](CCCCCCCCCCCCCCC)(CC3)CC4)(CC1)CC2`, the zone of inhibition at 0.1 µg/mL was found to be 0 mm.

The test system of a further experiment is Staphylococcus aureus. As to the kind of experiment: Antimicrobial activity against Staphylococcus aureus ATCC 25923 at 0.1 ug/ml after 24 hrs by agar diffusion method. It counts as functional. The settings on record: ATCC 25923, 24 h, read-out: DIZ.
For the compound `CCCCCCCCCCCCCCCCCC[N+]12CC[N+](CCCCC[N+]34CC[N+](CCCCCCCCCCCCCCCCCC)(CC3)CC4)(CC1)CC2`, the zone of inhibition at 0.1 µg/mL was determined as 0 mm.
As to `CCCCCCCCCCCCCCC[N+]12CC[N+](CCCCC[N+]34CC[N+](CCCCCCCCCCCCCCC)(CC3)CC4)(CC1)CC2`, the zone of inhibition at 0.1 µg/mL came out at 0 mm.

In another experiment the test system is Candida albicans. As to the kind of experiment: Antimicrobial activity against Candida albicans ATCC 32354 at 1 ug/ml after 24 hrs by agar diffusion method. It is filed as functional. The settings on record: ATCC 32354, 24 h, read-out: DIZ.
As to `CCCCCCCCC[N+]12CC[N+](CCCCC[N+]34CC[N+](CCCCCCCCC)(CC3)CC4)(CC1)CC2.[Br-].[Br-].[Br-].[Br-]`, the zone of inhibition at 1 µg/mL was found to be 10 mm.

A further experiment deals with Pseudomonas aeruginosa. As to the kind of experiment: Antimicrobial activity against Pseudomonas aeruginosa ATCC 9027 at 1 ug/ml after 24 hrs by agar diffusion method. It counts as functional. Conditions: ATCC 9027, 24 h, read-out: DIZ.
`CCCCCCCCC[N+]12CC[N+](CCCCC[N+]34CC[N+](CCCCCCCCC)(CC3)CC4)(CC1)CC2.[Br-].[Br-].[Br-].[Br-]`: the zone of inhibition at 1 µg/mL amounted to 0 mm.

The subject of another experiment is Salmonella enterica. The experiment can be described thus: Antimicrobial activity against 10^4 CFU/ml Salmonella enterica ATCC 14028 after 22 hrs by serial microdilution method. It is filed as functional. Conditions: ATCC 14028, 22 h.
For the compound `CCCCCCCCC[N+]12CC[N+](CCCCC[N+]34CC[N+](CCCCCCCCC)(CC3)CC4)(CC1)CC2.[Br-].[Br-].[Br-].[Br-]`, the MBC was determined as 50 µg/mL and 12.5 µg/mL was the least that counted as inhibitory (MIC).

The subject of the next experiment is Staphylococcus aureus. As to the kind of experiment: Antimicrobial activity against 10^4 CFU/ml Staphylococcus aureus ATCC 25923 after 22 hrs by serial microdilution method. It counts as functional. Conditions: ATCC 25923, 22 h.
With `CCCCCCCCC[N+]12CC[N+](CCCCC[N+]34CC[N+](CCCCCCCCC)(CC3)CC4)(CC1)CC2.[Br-].[Br-].[Br-].[Br-]`, the MBC came to 25 µg/mL and the lowest concentration to inhibit growth (MIC) was 12.5 µg/mL.

Another experiment concerns Staphylococcus aureus. As to the kind of experiment: Antimicrobial activity against Staphylococcus aureus ATCC 25923 at 1 ug/ml after 24 hrs by agar diffusion method. It counts as functional. Conditions: ATCC 25923, 24 h, read-out: DIZ.
Turning to `CCCCCCCCC[N+]12CC[N+](CCCCC[N+]34CC[N+](CCCCCCCCC)(CC3)CC4)(CC1)CC2.[Br-].[Br-].[Br-].[Br-]`, the zone of inhibition at 1 µg/mL worked out at 10 mm.

In a further experiment the test system is Salmonella enterica. As to the kind of experiment: Antimicrobial activity against 10^7 CFU/ml Salmonella enterica ATCC 14028 after 22 hrs by serial microdilution method. It counts as functional. The settings on record: ATCC 14028, 22 h.
Compound `CCCCCCCCC[N+]12CC[N+](CCCCC[N+]34CC[N+](CCCCCCCCC)(CC3)CC4)(CC1)CC2.[Br-].[Br-].[Br-].[Br-]` yielded an MBC of 50 µg/mL and an MIC of 25 µg/mL.

In another experiment the test system is Bacillus subtilis. As to the kind of experiment: Antimicrobial activity against 10^7 CFU/ml Bacillus subtilis ATCC 6633 after 22 hrs by serial microdilution method. It is filed as functional. Conditions: ATCC 6633, 22 h.
Consider `CCCCCCCCC[N+]12CC[N+](CCCCC[N+]34CC[N+](CCCCCCCCC)(CC3)CC4)(CC1)CC2.[Br-].[Br-].[Br-].[Br-]`, for which the MBC amounted to 25 µg/mL and the MIC was 25 µg/mL.

Another experiment deals with Pseudomonas aeruginosa. As to the kind of experiment: Antimicrobial activity against 10^7 CFU/ml Pseudomonas aeruginosa ATCC 9027 after 22 hrs by serial microdilution method. It is filed as functional. The settings on record: ATCC 9027, 22 h.
As for `CCCCCCCCC[N+]12CC[N+](CCCCC[N+]34CC[N+](CCCCCCCCC)(CC3)CC4)(CC1)CC2.[Br-].[Br-].[Br-].[Br-]`, the MBC was found to be 100 µg/mL and the MIC turned out to be 50 µg/mL.

The test system of the next experiment is Salmonella enterica. As to the kind of experiment: Antimicrobial activity against Salmonella enterica ATCC 14028 at 1 ug/ml after 24 hrs by agar diffusion method. It is filed as functional. The settings on record: ATCC 14028, 24 h, read-out: DIZ.
Consider `CCCCCCCCC[N+]12CC[N+](CCCCC[N+]34CC[N+](CCCCCCCCC)(CC3)CC4)(CC1)CC2.[Br-].[Br-].[Br-].[Br-]`, for which the zone of inhibition at 1 µg/mL was 9 mm.

A further experiment concerns Pseudomonas aeruginosa. As to the kind of experiment: Antimicrobial activity against 10^4 CFU/ml Pseudomonas aeruginosa ATCC 9027 after 22 hrs by serial microdilution method. It counts as functional. The settings on record: ATCC 9027, 22 h.
Regarding `CCCCCCCCC[N+]12CC[N+](CCCCC[N+]34CC[N+](CCCCCCCCC)(CC3)CC4)(CC1)CC2.[Br-].[Br-].[Br-].[Br-]`, the MBC came to 12.5 µg/mL and the minimal inhibitory concentration (MIC) was found to be 12.5 µg/mL.

A further experiment has as its system Escherichia coli. As to the kind of experiment: Antimicrobial activity against 10^4 CFU/ml Escherichia coli ATCC 25922 after 22 hrs by serial microdilution method. Conditions: ATCC 25922, 22 h. It is filed as functional.
In turn, `CCCCCCCCC[N+]12CC[N+](CCCCC[N+]34CC[N+](CCCCCCCCC)(CC3)CC4)(CC1)CC2.[Br-].[Br-].[Br-].[Br-]` had an MBC of 12.5 µg/mL and an MIC of 6.3 µg/mL.

Another experiment relates to Salmonella enterica. The experiment can be described thus: Antimicrobial activity against Salmonella enterica ATCC 14028 at 0.1 ug/ml after 24 hrs by agar diffusion method. The settings on record: ATCC 14028, 24 h, read-out: DIZ. It counts as functional.
`CCCCCCCCCCCCCCCCCC[N+]12CC[N+](CCCCC[N+]34CC[N+](CCCCCCCCCCCCCCCCCC)(CC3)CC4)(CC1)CC2`: the zone of inhibition at 0.1 µg/mL was determined as 0 mm.
Turning to `CCCCCCCCCCCCCCC[N+]12CC[N+](CCCCC[N+]34CC[N+](CCCCCCCCCCCCCCC)(CC3)CC4)(CC1)CC2`, the zone of inhibition at 0.1 µg/mL came to 0 mm.

The test system of a further experiment is Bacillus subtilis. As to the kind of experiment: Antimicrobial activity against Bacillus subtilis ATCC 6633 at 1 ug/ml after 24 hrs by agar diffusion method. It counts as functional. The settings on record: ATCC 6633, 24 h, read-out: DIZ.
In the case of `CCCCCCCCC[N+]12CC[N+](CCCCC[N+]34CC[N+](CCCCCCCCC)(CC3)CC4)(CC1)CC2.[Br-].[Br-].[Br-].[Br-]`, the zone of inhibition at 1 µg/mL is 12 mm.

The next experiment deals with Escherichia coli. As to the kind of experiment: Antimicrobial activity against Escherichia coli ATCC 25922 at 0.1 ug/ml after 24 hrs by agar diffusion method. It is filed as functional. Conditions: ATCC 25922, 24 h, read-out: DIZ.
In the case of `CCCCCCCCCCCCCCCCCC[N+]12CC[N+](CCCCC[N+]34CC[N+](CCCCCCCCCCCCCCCCCC)(CC3)CC4)(CC1)CC2`, the zone of inhibition at 0.1 µg/mL stood at 0 mm.
In the case of `CCCCCCCCCCCCCCC[N+]12CC[N+](CCCCC[N+]34CC[N+](CCCCCCCCCCCCCCC)(CC3)CC4)(CC1)CC2`, the zone of inhibition at 0.1 µg/mL is 0 mm.

A further experiment has as its system Staphylococcus aureus. As to the kind of experiment: Antimicrobial activity against 10^7 CFU/ml Staphylococcus aureus ATCC 25923 after 22 hrs by serial microdilution method. Conditions: ATCC 25923, 22 h. It counts as functional.
Turning to `CCCCCCCCC[N+]12CC[N+](CCCCC[N+]34CC[N+](CCCCCCCCC)(CC3)CC4)(CC1)CC2.[Br-].[Br-].[Br-].[Br-]`, the MBC came out at 50 µg/mL and the MIC was 12.5 µg/mL.

The test system of the next experiment is Candida albicans. The experiment can be described thus: Antimicrobial activity against 10^7 CFU/ml Candida albicans ATCC 32354 after 22 hrs by serial microdilution method. It is filed as functional. The settings on record: ATCC 32354, 22 h.
On to `CCCCCCCCC[N+]12CC[N+](CCCCC[N+]34CC[N+](CCCCCCCCC)(CC3)CC4)(CC1)CC2.[Br-].[Br-].[Br-].[Br-]`, for which the MBC is below 1.6 µg/mL and the MIC is below 1.6 µg/mL.

(Values after ChEMBL document CHEMBL3407338, “Synthesis and structure-activity relationship of novel 1,4-diazabicyclo[2.2.2]octane derivatives as potent antimicrobial agents” (Eur J Med Chem, 2015).)
